Assay results as given in patent publication US9475789B2, “Use of polyenylpyrrole derivatives for treating inflammation” (WELLHEAD BIOLOGICAL TECHNOLOGY CORP., priority 2014, dated 2016).
Entries after “also recorded” stand apart in the source; their conditions may differ.

Tests used:
Type in all cases: cell-based, murine
[1] = tested on: RAW 264.7 cells; assay: AlamarBlue assay for cell viability; details: Mus musculus, RAW264.7, cytotoxicity against RAW 264.7 cells, 24 h treatment
Experimental: RAW 264.7 cells were seeded at a density of 5000 cells in 100 μl RPMI 1640 medium with 10% heat-inactivated FBS per well in 96-well flat-bottom plates and incubated for 24 h at 37° C. in a 5% CO2 incubator. Cells were incubated with tested samples for 24 h and the AlamarBlue® assay was used to determine the cytotoxicity of the test samples. The procedure was conducted following the protocol described in the manufacture's instruction (AbD Serotec Ltd).
The aim of this study is to identify non-toxic polyenylpyrrole derivatives which can be used as anti-inflammatory agents. Compounds 1a-n were evaluated for their cytotoxicities against the murine macrophages cell line RAW 264.7 after 24 h treatment.

[2] = tested on: LPS-induced NO generation in RAW 264.7 macrophages; assay: NO inhibitory assay (Griess reaction) in LPS-activated macrophages; details: for EC50: Mus musculus, RAW264.7, 50% inhibition of the LPS-induced NO generation, RAW 264.7, LPS 1 μg/ml, 24 h, read-out: ED50 (the source's name); for production of NO by LPS-activated cells: RAW 264.7, LPS 1 μg/ml 24 h, Griess reaction; for background level of NO: compound alone, no LPS, RAW 264.7, data not shown
Experimental: In (A) and (C), cells (5×10^5/ml) were incubated with polyenylpyrrole derivatives or DMSO (vehicle) for 30 min followed by stimulating with LPS (1 μg/ml) for 24 h, then NO (A), IL-6 and TNF-α (C) concentration in culture medium were assayed by Griess reaction and ELISA, respectively. In (B), cells (5×10^5/ml) were pretreated with polyenylpyrrole derivatives or DMSO for 30 min followed by stimulating with LPS (1 μg/ml) for 24 h, then the protein expression of iNOS and COX-2 were assayed by Western blot. […] RAW 264.7 cells were seeded in 24-well plates at a density of 5×10^5 cells/ml, and then incubated with or without LPS (1 μg/ml) in the absence or presence of tested samples for 24 h. The effects of the tested samples on NO production were measured indirectly by analysis of nitrite levels using the Griess reaction.

[3] = tested on: iNOS; assay: Western blot of iNOS protein in LPS-activated RAW 264.7 macrophages; details: LPS-activated RAW 264.7, compared with vehicle
Experimental: (§1) In (A) and (C), cells (5×10^5/ml) were incubated with polyenylpyrrole derivatives or DMSO (vehicle) for 30 min followed by stimulating with LPS (1 μg/ml) for 24 h, then NO (A), IL-6 and TNF-α (C) concentration in culture medium were assayed by Griess reaction and ELISA, respectively. In (B), cells (5×10^5/ml) were pretreated with polyenylpyrrole derivatives or DMSO for 30 min followed by stimulating with LPS (1 μg/ml) for 24 h, then the protein expression of iNOS and COX-2 were assayed by Western blot.
(§2) Whole cell lysates were separated by SDS-PAGE and electrotransferred to a PVDF membrane. The membranes were incubated in blocking solution—5% nonfat milk in phosphate buffered saline with 0.1% Tween 20—at room temperature for 1 h. Each membrane was incubated with a specific primary antibody at room temperature for 2 h. After washing three times in PBS with 0.1% Tween 20, the membrane was incubated with an HRP-conjugated secondary antibody directed against the primary antibody. The membrane was developed by an enhanced chemiluminescence Western blot detection system.

[4] = tested on: COX-2; assay: Western blot of COX-2 protein in LPS-activated RAW 264.7 macrophages
Experimental: as §1, §2

[5] = tested on: IL-6; assay: IL-6 ELISA, RAW 264.7 macrophages; details: for secretion of IL-6: LPS-activated RAW 264.7, LPS 1 μg/ml 24 h; for background level of IL-6: compound alone, no LPS, data not shown
Experimental: (§3) The effects of tested samples on IL-1β, TNF-α and IL-6 production were measured by ELISA according to the manufacturer's instruction. In brief, 50 μl of biotinylated antibody reagent and 50 μl of supernatant were added to an anti-mouse IL-1β, TNF-α and IL-6 precoated stripwell plate, and incubated at room temperature for 2 h. After washing the plate three times with washing buffer, 100 μl of diluted streptavidin-HRP concentrate was added to each well and incubated at room temperature for 30 min. The washing process was repeated; then 100 μl of a premixed tetramethylbenzidine substrate solution was added to each well and developed at room temperature in the dark for 30 min. Following the addition of 100 μl of stop solution to each well to stop the reaction, the absorbance of the plate was measured by a microplate reader at 450 nm wavelength.

[6] = tested on: TNF-α; assay: TNF-α ELISA, RAW 264.7 macrophages; details: for TNF-α secretion: LPS-activated RAW 264.7, LPS 1 μg/ml 24 h; for background level of TNF-α: compound alone, no LPS, data not shown
Experimental: as §1, §3

[7] = tested on: ROS; assay: Intracellular ROS production, LPS-activated RAW 264.7 macrophages; details: compound 1h 20 μM, NAC 10 mM, 30 min before LPS
Experimental: In (A), RAW 264.7 macrophages (5×10^5/ml) were incubated with compound 1h (20 μM), N-acetyl cysteine (NAC; 10 mM) or DMSO (vehicle) for 30 min followed by LPS (1 μg/ml) stimulating for the indicated time, then ROS levels were measured by detection of the fluorescence intensity of the fluorophore carboxyl-DCF and expressed relative to those at time zero. In (B), RAW 264.7 macrophages (5×10^5/ml) were incubated with compound 1h (20 μM) or DMSO for 30 min followed by LPS (1 μg/ml) stimulating for 0-60 min, then the phosphorylation levels of ERK1/2, JNK1/2, p38 were analyzed by Western blot. In (C), J774A.1 macrophages (5×10^5/ml) were incubated with compound 1h or DMSO for 30 min followed by LPS (1 μg/ml) stimulating for 20 min, then the phosphorylation levels of ERK1/2, JNK1/2, p38 were analyzed by Western blot.
Intracellular ROS stimulated by LPS was measured by detecting the fluorescence intensity of the 2′,7′-dichlorofluorescein diacetate (H2DCFDA) oxidized product (DCF) (Molecular Probes, Eugene, Oreg.). […] The relative fluorescence intensity of fluorophore DCF, formed by peroxide oxidation of the non-fluorescent precursor, was detected at an excitation wavelength of 485 nm and an emission wavelength of 530 nm with a microplate absorbance reader (Bio-Rad Laboratories, Inc).

Row | Structure (SMILES) | IC50 [1] | EC50 [2] | production of NO by LPS-activated cells [2] | background level of NO [2] | expression of iNOS protein [3] | COX-2 expression [4] | secretion of IL-6 [5] | background level of IL-6 [5] | TNF-α secretion [6] | background level of TNF-α [6] | LPS-stimulated ROS production [7]
1 | COc1cc(/C=C/C=C/C=C/C=C/c2sccc2Cl)oc(=O)c1C [Compound 1k] | > 100 µM | 18 ± 2 µM | – | – | – | – | – | – | – | – | –
2 | COc1cc(/C=C/C=C/C=C/C=C/c2c(Cl)ccn2S(C)(=O)=O)oc(=O)c1C [Compound 1n] | > 100 µM | 17 ± 2 µM | decreased production; also recorded: decreased the production of NO by LPS-activated cells in a dose-dependent manner | did not alter | decreased production; also recorded: reduced the expression of iNOS protein | did not affect | decreased production; also recorded: decreased the secretion of IL-6 by LPS-activated RAW 264.7 macrophages in a dose-dependent manner | did not alter | slight reduced by compounds 1h, 1i and 1n, but not significantly | did not alter | –
3 | Cc1c(O)cc(/C=C/C=C/C=C/C=C/c2[nH]ccc2Cl)oc1=O [Compound 1i] | > 100 µM | 16 ± 2 µM | decreased production; also recorded: decreased the production of NO by LPS-activated cells in a dose-dependent manner | did not alter | decreased production; also recorded: reduced the expression of iNOS protein | did not affect | decreased production; also recorded: decreased the secretion of IL-6 by LPS-activated RAW 264.7 macrophages in a dose-dependent manner | did not alter | slight reduced by compounds 1h, 1i and 1n, but not significantly | did not alter | –
4 | CC(=O)N[C@@H](CS)C(=O)O [N-acetyl cysteine, reference compound] | – | – | – | – | – | – | – | – | – | – | reduced ROS production
5 | COc1cc(/C=C/C=C/C=C/C=C/c2sccc2Cl)oc(=O)c1 [Compound 1j] | > 100 µM | 29 ± 6 µM | – | – | – | – | – | – | – | – | –
6 | COc1cc(/C=C/C=C/C=C/C=C/c2cccc(Cl)c2)oc(=O)c1C [Compound 1m] | > 100 µM | 26 ± 3 µM | – | – | – | – | – | – | – | – | –
7 | COc1cc(/C=C/C=C/C=C/C=C/c2ccccc2Cl)oc(=O)c1C [Compound 1l] | > 100 µM | 18 ± 3 µM | – | – | – | – | – | – | – | – | –
